Results: US20100130612A1, “COMPOSITION CONTAINING CHITOSAN FOR SUSTAINED DRUG RELEASE” (THE JORDANIAN PHARMACEUTICAL MANUFACTURING CO., priority 2005, published 2010)

Assay: Solubility of acidic drugs in acidic media when combined with chitosan polymer solution
Format: physicochemical
Details: pH<5.0; combined with a respective chitosan polymer solution

Row | SMILES | solubility in acidic media (in words)
1 | O=C(O)Cc1ccccc1Nc1c(Cl)cccc1Cl [diclofenac sodium] | soluble in acidic media
2 | CC(C)Cc1ccc(C(C)C(=O)O)cc1.[Na] (centres unmarked) [ibuprofen sodium] | soluble in acidic media
